The results in this text go back to US9011833B2, “Vitamin E formulations of sulfamide NS3 inhibitors” (priority 2010, dated 2015).

For orientation: bioavailability means the share of a dose that reaches the circulation, judged against a reference dose that is usually intravenous. One may read the solubility as the concentration that dissolves in the medium under given conditions. Lower therefore signals little dissolved substance.

The nature of one data set: in vivo. Details: species or system sprague dowley rats. Particulars: Sprague-Dawley, rat.
Another data set in a line: physchem. Particulars: aqueous buffer, Compound 34 solubility.
A short description of data set [1]: Solubilization of Compound 34 in microemulsion formulation. The class given is physicochemical. Particulars: microemulsion preconcentrate or microemulsion diluted with water. The text has this: Microemulsion preconcentrate or diluted microemulsion with water is used. The formulation solubilizes the Compound 34 up to 15% by wt. The specific components for formulation are: […]

Values after ≈ are worked out from the molar mass of the structure shown.

`CC[C@@H]1C[C@]1(NC(=O)[C@@H]1C[C@@]2(CN1C(=O)[C@@H](NC(=O)[C@@H](NC(=O)[C@@H]1CCCCN1C(C)C)C1CCCCC1)C(C)(C)C)C(C)(C)C21CCC1)C(=O)NS(=O)(=O)N1CCCC1` [Compound 34, (5R,8S)-7-[(2S)-2-{[(2S)-2-cyclohexyl-2-({[(2S)-1-isopropylpiperidin-2-yl]carbonyl}amino)acetyl]a-mino}-3,3-dimethylbutanoyl]-N-{(1R,2R)-2-ethyl-1-[(pyrrolidin-1-ylsulfonyl)carbamoyl]cyclo-propyl}-10,10-dimethyl-7-azadispiro[3.0.4.1]decane-8-carboxamide] registered a bioavailability in “in vivo” of 80 to 95%. The solubility in “physchem” came to 30 µg/mL (≈ 35 µM). Further, the “solubilized in microemulsion formulation” value in data set [1] is listed as “up to 15 % by wt”.
